In patent US20240269157A1, “COMPOSITIONS AND METHODS FOR OVERCOMING MICROENVIRONMENT-MEDIATED RESISTANCE VIA E-SELECTIN TARGETING” (GLYCOMIMETICS, INC., priority 2021, published 2024):

Key:
luc-MV4.11 cells = assay: MV4.11 AML model survival; type: in vivo, NSG mice; details: 40 mg/kg Compound A i.p., 100 mg/kg venetoclax oral, 14 days once daily
Experimental: To evaluate the efficacy of targeting E-selectin with Compound A in combination with venetoclax, an in vivo MV4.11 AML model was employed (FIG. 16).
luc-MV4.11 cells (5×10^6 cells/mouse) were transplanted into NSG mice. Mice were divided into four groups: vehicle treatment only; 40 mg/kg of Compound A (intraperitoneal, 14 day once daily); 100 mg/kg venetoclax (oral, 14 days once daily), and a combination of 40 mg/kg Compound A and 100 mg/kg venetoclax. Drug treatment was initiated on day 10 post-transplantation.

E-selectin = biological target: T1, E-selectin (Homo sapiens, UniProt P16581); assay: Compound A binding to E-selectin (KD)
T1 sequence (P16581 22-610): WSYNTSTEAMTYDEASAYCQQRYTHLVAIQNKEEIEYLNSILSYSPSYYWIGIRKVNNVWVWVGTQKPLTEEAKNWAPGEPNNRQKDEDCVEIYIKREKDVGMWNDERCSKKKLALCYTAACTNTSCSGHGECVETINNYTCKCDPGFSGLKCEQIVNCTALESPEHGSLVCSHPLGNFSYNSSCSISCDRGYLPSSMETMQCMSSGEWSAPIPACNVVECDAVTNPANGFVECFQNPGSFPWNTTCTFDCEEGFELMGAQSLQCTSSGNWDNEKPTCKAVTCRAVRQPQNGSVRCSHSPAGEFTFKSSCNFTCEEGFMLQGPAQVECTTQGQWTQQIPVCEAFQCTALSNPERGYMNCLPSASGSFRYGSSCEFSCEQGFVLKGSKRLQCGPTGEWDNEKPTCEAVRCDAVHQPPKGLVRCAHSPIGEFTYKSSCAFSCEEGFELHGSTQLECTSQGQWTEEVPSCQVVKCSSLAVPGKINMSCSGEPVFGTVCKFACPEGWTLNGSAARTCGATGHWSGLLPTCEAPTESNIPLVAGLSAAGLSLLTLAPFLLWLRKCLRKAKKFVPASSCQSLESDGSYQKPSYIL

KG1 cells = assay: Real time qPCR of mRNAs encoding glycosyltransferases in KG1 cells; type: cell-based, human; design: key to AVG ΔCt (Ct(GOI) − Ave Ct (HKG)) Test Sample: Ct of gene of interest minus average housekeeping-gene Ct; key to Fold Change Test Sample/Control Sample: ratio of 2^(−ΔCt) treated / 2^(−ΔCt) control; details: KG1, 100 nM 5-AZA, 96 hours
Experimental: To address the hypothesis that hypomethylation led to enhanced expression of glycosyltransferases, KG1 cells were cultured in the presence or absence of 100 nM 5-AZA for 96 hours followed by real time qPCR analysis of mRNAs encoding relevant glycosyltransferases. Fresh 5-AZA was added to the culture daily. Approximately 1×10^6 cells were pelleted by centrifugation at 250×g for 10 minutes then snap frozen on dry ice. Total RNA was extracted and purified using a QIAGEN RNeasy® Kit with an on-column DNase treatment step (QIAGEN Cat. No. 74104). The fold-change (2^(−Delta Ct)) is the normalized gene expression (2^(−Delta Ct)) in the 5-AZA treated sample divided the normalized gene expression (2^(−Delta Ct)) in the control sample.
In Table 1, fold-regulation represents fold-change results in a biologically meaningful way. Fold-change values greater than one indicate a positive- or an up-regulation, and the fold-regulation is equal to the fold-change. Fold-change values less than one indicate a negative or down-regulation, and the fold-regulation is the negative inverse of the fold-change. Additionally, p-values in Table 1 were calculated based on a Student's t-test of the replicate 2^(−Delta Ct) values for each gene in the control group and treatment groups.

CCC1CC(C(=O)NCCNC(=O)CCOCCOCCOCCOCCOCCOCCOCCOCCOCCOCCOCCOC)C[C@@H](O[C@@H]2OC(CO)[C@H](O)C(O[C@@H](CC3CCCCC3)C(=O)O)C2NC(C)=O)[C@@H]1OC1O[C@@H](C)[C@H](O)C(O)[C@@H]1O (stereo partly drawn) [Compound A]
median survival time (MST) (luc-MV4.11 cells): 39 days | Kd (E-selectin): ~450 nM

Nc1ncn([C@@H]2O[C@H](CO)[C@@H](O)[C@H]2O)c(=O)n1 [5-azacitidine]
2^-ΔCt Test Sample (KG1 cells; ACTB): 5.5E−01 | AVG ΔCt (Ct(GOI) − Ave Ct (HKG)) Test Sample (KG1 cells; ACTB): 0.87 | Fold Change Test Sample/Control Sample (KG1 cells; ACTB): 0.58 | Fold Up- or Down-Regulation Test Sample/Control Sample (KG1 cells; ACTB): −1.73 | 2^-ΔCt Test Sample (KG1 cells; B3GNT5): 2.3E−03 | AVG ΔCt (Ct(GOI) − Ave Ct (HKG)) Test Sample (KG1 cells; B3GNT5): 8.74 | Fold Change Test Sample/Control Sample (KG1 cells; B3GNT5): 2.36 | Fold Up- or Down-Regulation Test Sample/Control Sample (KG1 cells; B3GNT5): 2.36 | 2^-ΔCt Test Sample (KG1 cells; CDKN1C): 6.1E−04 | AVG ΔCt (Ct(GOI) − Ave Ct (HKG)) Test Sample (KG1 cells; CDKN1C): 10.69 | Fold Change Test Sample/Control Sample (KG1 cells; CDKN1C): 1.24 | Fold Up- or Down-Regulation Test Sample/Control Sample (KG1 cells; CDKN1C): 1.24 | 2^-ΔCt Test Sample (KG1 cells; FUT3): 3.3E−05 | AVG ΔCt (Ct(GOI) − Ave Ct (HKG)) Test Sample (KG1 cells; FUT3): 14.89 | Fold Change Test Sample/Control Sample (KG1 cells; FUT3): 1.42 | Fold Up- or Down-Regulation Test Sample/Control Sample (KG1 cells; FUT3): 1.42 | 2^-ΔCt Test Sample (KG1 cells; FUT4): 3.6E−05 | AVG ΔCt (Ct(GOI) − Ave Ct (HKG)) Test Sample (KG1 cells; FUT4): 14.78 | Fold Change Test Sample/Control Sample (KG1 cells; FUT4): 0.98 | Fold Up- or Down-Regulation Test Sample/Control Sample (KG1 cells; FUT4): −1.02 | 2^-ΔCt Test Sample (KG1 cells; FUT5): 3.3E−05 | AVG ΔCt (Ct(GOI) − Ave Ct (HKG)) Test Sample (KG1 cells; FUT5): 14.89 | Fold Change Test Sample/Control Sample (KG1 cells; FUT5): 1.03 | Fold Up- or Down-Regulation Test Sample/Control Sample (KG1 cells; FUT5): 1.03 | 2^-ΔCt Test Sample (KG1 cells; FUT6): 9.3E−05 | AVG ΔCt (Ct(GOI) − Ave Ct (HKG)) Test Sample (KG1 cells; FUT6): 13.39 | Fold Change Test Sample/Control Sample (KG1 cells; FUT6): 3.27 | Fold Up- or Down-Regulation Test Sample/Control Sample (KG1 cells; FUT6): 3.27 | 2^-ΔCt Test Sample (KG1 cells; FUT7): 3.0E−04 | AVG ΔCt (Ct(GOI) − Ave Ct (HKG)) Test Sample (KG1 cells; FUT7): 11.71 | Fold Change Test Sample/Control Sample (KG1 cells; FUT7): 10.15 | Fold Up- or Down-Regulation Test Sample/Control Sample (KG1 cells; FUT7): 10.15 | 2^-ΔCt Test Sample (KG1 cells; FUT9): 4.4E−05 | AVG ΔCt (Ct(GOI) − Ave Ct (HKG)) Test Sample (KG1 cells; FUT9): 14.46 | Fold Change Test Sample/Control Sample (KG1 cells; FUT9): 1.92 | Fold Up- or Down-Regulation Test Sample/Control Sample (KG1 cells; FUT9): 1.92 | 2^-ΔCt Test Sample (KG1 cells; GAPDH): 1.8E+00 | AVG ΔCt (Ct(GOI) − Ave Ct (HKG)) Test Sample (KG1 cells; GAPDH): −0.87 | Fold Change Test Sample/Control Sample (KG1 cells; GAPDH): 1.73 | Fold Up- or Down-Regulation Test Sample/Control Sample (KG1 cells; GAPDH): 1.73 | 2^-ΔCt Test Sample (KG1 cells; ST3GAL3): 5.0E−04 | AVG ΔCt (Ct(GOI) − Ave Ct (HKG)) Test Sample (KG1 cells; ST3GAL3): 10.95 | Fold Change Test Sample/Control Sample (KG1 cells; ST3GAL3): 1.07 | Fold Up- or Down-Regulation Test Sample/Control Sample (KG1 cells; ST3GAL3): 1.07 | 2^-ΔCt Test Sample (KG1 cells; ST3GAL4): 6.9E−03 | AVG ΔCt (Ct(GOI) − Ave Ct (HKG)) Test Sample (KG1 cells; ST3GAL4): 7.17 | Fold Change Test Sample/Control Sample (KG1 cells; ST3GAL4): 2.78 | Fold Up- or Down-Regulation Test Sample/Control Sample (KG1 cells; ST3GAL4): 2.78 | 2^-ΔCt Test Sample (KG1 cells; ST3GAL6): 2.0E−02 | AVG ΔCt (Ct(GOI) − Ave Ct (HKG)) Test Sample (KG1 cells; ST3GAL6): 5.66 | Fold Change Test Sample/Control Sample (KG1 cells; ST3GAL6): 2.55 | Fold Up- or Down-Regulation Test Sample/Control Sample (KG1 cells; ST3GAL6): 2.55
